The values below come from US7081473B2, “Agent for preventing/ameliorating obesity comprising methylidene hydrizide compound as active ingredient” (Sanwa Kagaku Kenkyusho Co., Ltd., priority 2002, dated 2006).

The test system of one experiment is GIP. The conditions noted are these: disclosed in WO 01/87341; read-out: IC50 (inhibiting the functions of GIP); cited from earlier work.
The target of the next experiment is T1, human GIP receptor (Homo sapiens, UniProt P48546).
T1 construct: expressed in transfected cells; host or cells: CHO cells
T1 sequence (P48546 22-466): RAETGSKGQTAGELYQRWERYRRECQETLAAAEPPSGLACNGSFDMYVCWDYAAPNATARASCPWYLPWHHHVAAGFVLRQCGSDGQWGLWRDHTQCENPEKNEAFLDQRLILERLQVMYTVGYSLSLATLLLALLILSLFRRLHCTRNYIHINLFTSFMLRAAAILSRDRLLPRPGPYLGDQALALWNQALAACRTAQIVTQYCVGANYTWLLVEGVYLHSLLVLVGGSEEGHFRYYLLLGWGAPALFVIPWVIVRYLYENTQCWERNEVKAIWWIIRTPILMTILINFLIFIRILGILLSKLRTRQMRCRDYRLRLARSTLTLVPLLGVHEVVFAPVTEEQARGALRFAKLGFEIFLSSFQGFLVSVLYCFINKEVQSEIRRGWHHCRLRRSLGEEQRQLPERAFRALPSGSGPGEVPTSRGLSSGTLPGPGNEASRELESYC
Nature of the experiment: Inhibition of cAMP production by GIP stimulation in human GIP receptor-expressing CHO cells. The conditions noted are these: for IC50: 100 pM GIP, 37° C., 30 minutes, human GIP receptor-expressing CHO cells, read-out: IC50 (concentration of the compound at which the production of cAMP by GIP is inhibited by 50%). Type of experiment: cell-based. The text has this: The system for evaluation of GIP function inhibitors (GIP receptor antagonists and the like) made use of the following method wherein their inhibitory activity on production of cAMP as GIP intracellular transmitter was used as an indicator.
According to a method of Kubota et al. (Diabetes 45: 1701–1705, 1996), human GIP receptor-expressing cells prepared by introducing GIP cDNA into CHO cells were used. First, cAMP was produced by stimulation with 100 pM GIP in the presence/absence of the test chemical at 37° C. for 30 minutes in phosphate-buffered saline, pH 7.4, containing 1 mM isobutylmethylxanthine, 5.6 mM glucose and 0.5% bovine serum albumin. Then, using a cAMP assay system (PE Biosystems), the cells were lyzed with an attached lysis buffer, the amount of cAMP accumulated in the cells was measured, and the inhibitory activity of the test sample on the functions of GIP was determined. To verify the action of the test sample completely irrelevant to the action on GIP receptor, the inhibitory effect of the test sample on formation of cAMP upon stimulating, with 5 μM forskolin, CHO cells into which the GIP receptor gene had not been introduced (cells not expressing the GIP receptor) was also confirmed. The inhibitory activity was expressed in terms of IC50 (concentration of the compound at which the production of cAMP by GIP is inhibited by 50%). A compound not showing any inhibitory activity on formation of cAMP in the cells not expressing the GIP receptor, but inhibiting the formation of cAMP by stimulation with GIP, in the cells expressing the GIP receptor, was regarded as an active compound.
A general note: cAMP levels reflect the balance of adenylyl cyclase and phosphodiesterase activity.

For the compound `Cc1cc(O)n2nc(-c3ccccc3)c(Br)c2n1` [3-bromo-5-methyl-2-phenylpyrazolo[1,5-a]pyrimidin-7-ol], the IC50 in the experiment with GIP is roughly 40000 nM.
Consider `O=C(N/N=C/c1ccccc1Br)c1ccc(O)cc1` [Compound 1], for which the IC50 on human GIP receptor stood at 19000 nM. Moreover, at human GIP receptor (cells expressing the GIP receptor, result in words), the “inhibition of cAMP formation upon stimulation with GIP (functions of GIP)” value is given as “inhibited the functions of GIP though at low levels”.
Turning to `Cc1cc(C)c(C)c(Cn2ccc3c(/C=N/NC(=O)c4ccc(O)c(C#N)c4)cccc32)c1C` [Compound 2, 3-Cyano-4-hydroxybenzoic acid [1-(2,3,5,6-tetramethylbenzyl)indol-4-yl]methylidene hydrazide], the IC50 on human GIP receptor was 6.3 nM.
With `COc1ccc(/C=N/NC(=O)c2ccc(O)c(Cl)c2)c2ccccc12` [Compound 3, 3-Chloro-4-hydroxybenzoic acid (4-methoxynaphthalen-1-yl)methylidene hydrazide], the IC50 on human GIP receptor came out at 560 nM.
Same read-out and setting: to `O=C(N/N=C/c1ccc2c(ccn2Cc2ccc(Cl)s2)c1)c1ccc(O)c(Cl)c1` [Compound 4, 3-Chloro-4-hydroxybenzoic acid [1-(5-chlorothiophen-2-ylmethyl)-1H-indol-5-yl]methylidene hydrazide] belongs 440 nM.
